Bounds are passed on as bounds.

Data set [1] concerns cancer cells expressing the ALK mutant L1196M. In words: Cytotoxicity experiments, growth of cells expressing ALK mutant L1196M. As to conditions: two days incubation. The data set is classed as cell-based, murine.
Data set [2] relates to BaF3-NPM-ALK cells (ALK WT). In words: Cytotoxicity experiments, growth of BaF3-NPM-ALK cells, ALK WT. In kind it is cell-based, murine. As to conditions: two days incubation. The source says: Cytotoxicity Experiments.
The cell line that can be used in the assay is Ba/F3, a murine pro-B cell line that has been stably transfected with the expression vector pClneo™ (Promega Corp., Madison Wis.) encoding NPM-ALK and subsequently G418-resistent cells were selected. The inhibitory activity of the compounds of Formula I can be determined as follows: BaF3-NPM-ALK cells (15000/well in a microtiter plate) were transferred to a 96-well microtiter plate. Test compounds (dissolved in DMSO) were then added in a series of concentrations (serial dilutions) with a final concentration of DMSO not exceeding 1% (v/v). […] The cell lysis was completed at room temperature within 60 minutes and the amount of Yopro bound to the DNA was determined by measurement using, for example, a CytoFluor II 96-well reader (PerSeptive Biosystems). IC50 can be determined by computer aided system using the following formula: IC50=[(ABS test−ABS start)/(ABS control−ABS start)]×100 wherein ABS was absorption.

A short description of data set [3]: Metabolic stability in human liver microsomes. The settings on record: human liver microsomes 0.5 mg/mL, compound 1 μM. The data set is classed as in vitro ADME.
Description: Metabolic Experiment of Liver Microparticle.
Experiments in microsomes: Human liver microsomes: 0.5 mg/mL, Xenotech; Rat liver microsomes: 0.5 mg/mL, Xenotech; Coenzyme (NADPH/NADH): 1 mM, Sigma Life Science; Magnesium chloride: 5 mM, 100 mM phosphate buffer (pH 7.4).
Preparation of phosphate buffer (100 mM, pH7.4): A pre-formulated 0.5M potassium dihydrogen phosphate (150 mL) was mixed with 0.5M dibasic potassium phosphate (700 mL). The pH of the mixture was adjusted to 7.4 with 0.5M dibasic potassium phosphate solution. The mixture was diluted 5-fold with ultrapure water before use, and magnesium chloride was added to obtain a phosphate buffer (100 mM) containing 100 mM potassium phosphate, 3.3 mM magnesium chloride, pH 7.4.
A NADPH regeneration system solution (containing 6.5 mM NADP, 16.5 mM G-6-P, 3 U/mL G-6-PD, 3.3 mM magnesium chloride) was prepared and placed on wet ice prior to use.
Preparation of stop solution: acetonitrile solution containing 50 ng/mL propranolol hydrochloride and 200 ng/mL tolbutamide (internal standard). 25057.5 μL of phosphate buffer (pH 7.4) was taken into a 50 mL centrifuge tube, to which 812.5 μL human liver microsomes were added, and mixed to obtain a liver microsome dilution solution with a protein concentration of 0.625 mg/mL.
Incubation of the samples: The stock solution of the respective compound was respectively diluted to 0.25 mM with an aqueous solution containing 70% acetonitrile, and used as a working solution, ready for use. 398 μL of the dilution solution of human liver microsomes or rat liver microsome were added to a 96-well incubation plate (N=2), respectively, and 2 μL of 0.25 mM working solution was added and mixed.
Metabolic stability assay: 300 μL of pre-chilled stop solution was added to each well of a 96-well deep well plate and placed on ice as a stop plate. The 96 well incubation plate and NADPH regeneration system were placed in a 37° C. water bath box, shaken at 100 rpm and pre-incubated for 5 min. 80 μL of incubation solution was taken out from each well of the incubation plate and added to the stop plate, mixed, and replenished with 20 μL of NADPH regeneration system solution as a 0-min sample. 80 μL of NADPH regeneration system solution was added to each well of the incubation plate to start the reaction and start counting. […] 100 μL of the supernatant was added to a 96-well plate to which 100 μL of distilled water was previously added, mixed, and analyzed by LC-MS/MS.
Data analysis: The peak areas of the corresponding compound and internal standard were detected by LC-MS/MS system, and the ratio of the peak area of the compound to the internal standard was calculated.

In the case of `CC1Oc2cc(cnc2N)-c2c(nn(C)c2C#N)CN(C)C(=O)c2ccc(F)cc21` (racemic) [Compound 72], the IC50 in data set [1] is 1 to 100 nM; in data set [2] it was below 1 nM.

Consider `CC1Oc2cc(cnc2N)-c2c(nn(C)c2C#N)CN(C)C(=O)c2ccc(F)cc21` (stereo not drawn) [Compound 18], for which the figures for the IC50 in data set [1] and in data set [2] were 1 to 100 nM and below 1 nM, respectively.

Consider `CC1Oc2cc(cnc2N)-c2c(nn(C)c2C#N)CN(C)C(=O)c2ccc(F)cc21` (stereo not drawn) [Compound 28], for which the values for the IC50 in data set [1] and in data set [2] were 1 to 100 nM and below 1 nM, respectively.

For `[2H]C([2H])([2H])n1nc2c(c1C#N)-c1cnc(N)c(c1)OC(C)c1cc(F)ccc1C(=O)N(C)C2` (stereo not drawn) [Compound 28], in data set [3], the “CLint” value was 9.7 µL/min/mg and the “t1/2” value amounted to 2.377 h.

In the case of `CC1Oc2cc(cnc2N)-c2c(nn(C)c2C#N)CN(C)C(=O)c2ccc(F)cc21` (stereo not drawn) [Compound 45], the IC50 in data set [1] is 1 to 100 nM; in data set [2], below 1 nM.

With `CC1Oc2cc(cnc2N)-c2c(nn(C)c2C#N)CN(C)C(=O)c2ccc(F)cc21` (stereo not drawn) [Compound 58], the IC50 in data set [1] was 1 to 100 nM; in data set [2] it was below 1 nM.

For the compound `CC1Oc2cc(cnc2N)-c2c(nn(C)c2C#N)CN(C)C(=O)c2ccc(F)cc21` (stereo not drawn) [Compound 76], the IC50 in data set [1] is 1 to 100 nM; in data set [2], below 1 nM.

Turning to `C[C@H]1Oc2cc(cnc2N)-c2c(nn(C)c2C#N)CN(C)C(=O)c2ccc(F)cc21` [PF-06463922, reference compound], the IC50 in data set [1] was 1 to 100 nM. Besides, in data set [2], the IC50 was below 1 nM. For the same compound, in data set [3], the “CLint” value was determined as 11.8 µL/min/mg and the “t1/2” value is 1.952 h.

Source of the values: patent US10543199B2, “Macrocycle and composition comprising thereof” (Shenzhen TargetRx, Inc., priority 2016, dated 2020).
